Experimental data taken from ChEMBL document CHEMBL1129223, “1-Oxo-3-aryl-1H-indene-2-carboxylic acid derivatives as selective inhibitors of fibroblast growth factor receptor-1 tyrosine kinase” (Bioorg Med Chem Lett, 1997).

How the values were obtained:
[1] = molecular target: T1, Fibroblast growth factor receptor (Homo sapiens, UniProt P22607+P11362+P22455+P21802); assay: Inhibitory activity against fibroblast growth factor receptor (FGFr); format: protein assay
[2] = molecular target: Platelet-derived growth factor receptor (Homo sapiens) (UniProt P09619+P16234); assay: Inhibitory activity against platelet-derived growth factor receptor (PDGFr) at 50 uM
[3] = molecular target: T2, Proto-oncogene tyrosine-protein kinase Src (Homo sapiens, UniProt P12931); assay: Inhibitory activity against c-src tyrosine kinase
T2 sequence (P12931 2-536 limits assumed): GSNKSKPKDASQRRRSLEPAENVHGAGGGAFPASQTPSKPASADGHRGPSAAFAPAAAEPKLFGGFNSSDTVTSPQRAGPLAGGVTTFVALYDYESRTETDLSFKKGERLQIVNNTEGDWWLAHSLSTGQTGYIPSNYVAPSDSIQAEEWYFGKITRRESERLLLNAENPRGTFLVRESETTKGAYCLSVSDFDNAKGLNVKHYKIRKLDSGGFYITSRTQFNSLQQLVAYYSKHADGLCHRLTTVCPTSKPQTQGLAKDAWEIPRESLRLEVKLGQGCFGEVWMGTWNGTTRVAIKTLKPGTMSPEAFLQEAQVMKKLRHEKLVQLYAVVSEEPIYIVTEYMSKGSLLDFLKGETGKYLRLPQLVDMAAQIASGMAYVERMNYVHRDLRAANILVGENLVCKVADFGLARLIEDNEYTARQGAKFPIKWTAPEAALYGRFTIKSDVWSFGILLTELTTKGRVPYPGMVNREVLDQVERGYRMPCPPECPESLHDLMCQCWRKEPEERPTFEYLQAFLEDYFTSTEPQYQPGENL

[4] = molecular target: T1, Fibroblast growth factor receptor; assay: Inhibitory activity against fibroblast growth factor receptor (FGFr) at 50 uM; format: protein assay
[5] = molecular target: T2, Proto-oncogene tyrosine-protein kinase Src; assay: Inhibitory activity against c-src tyrosine kinase at 50 uM

T1 sequence (P11362 whole entry, looked up): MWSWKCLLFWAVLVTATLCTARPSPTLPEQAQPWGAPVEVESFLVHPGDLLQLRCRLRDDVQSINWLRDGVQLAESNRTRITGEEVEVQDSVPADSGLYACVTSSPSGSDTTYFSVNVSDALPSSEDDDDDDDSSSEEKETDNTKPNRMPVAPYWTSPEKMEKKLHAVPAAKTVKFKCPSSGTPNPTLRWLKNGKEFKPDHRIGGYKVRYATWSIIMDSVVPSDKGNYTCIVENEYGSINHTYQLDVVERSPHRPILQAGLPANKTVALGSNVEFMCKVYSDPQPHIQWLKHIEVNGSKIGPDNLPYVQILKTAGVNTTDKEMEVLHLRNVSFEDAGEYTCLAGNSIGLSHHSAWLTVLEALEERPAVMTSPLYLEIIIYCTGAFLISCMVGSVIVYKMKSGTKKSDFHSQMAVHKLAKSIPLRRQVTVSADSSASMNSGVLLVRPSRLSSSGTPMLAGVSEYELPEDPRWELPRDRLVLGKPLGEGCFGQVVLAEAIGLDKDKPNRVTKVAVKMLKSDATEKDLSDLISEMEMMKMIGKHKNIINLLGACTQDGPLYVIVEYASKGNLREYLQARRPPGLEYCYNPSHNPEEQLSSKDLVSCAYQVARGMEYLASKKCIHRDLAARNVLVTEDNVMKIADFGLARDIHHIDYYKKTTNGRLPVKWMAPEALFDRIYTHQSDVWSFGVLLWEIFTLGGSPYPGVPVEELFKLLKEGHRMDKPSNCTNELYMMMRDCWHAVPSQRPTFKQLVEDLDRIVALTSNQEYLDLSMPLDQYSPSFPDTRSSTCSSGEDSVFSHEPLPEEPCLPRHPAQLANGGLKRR
T1 sequence (P21802 whole entry, looked up): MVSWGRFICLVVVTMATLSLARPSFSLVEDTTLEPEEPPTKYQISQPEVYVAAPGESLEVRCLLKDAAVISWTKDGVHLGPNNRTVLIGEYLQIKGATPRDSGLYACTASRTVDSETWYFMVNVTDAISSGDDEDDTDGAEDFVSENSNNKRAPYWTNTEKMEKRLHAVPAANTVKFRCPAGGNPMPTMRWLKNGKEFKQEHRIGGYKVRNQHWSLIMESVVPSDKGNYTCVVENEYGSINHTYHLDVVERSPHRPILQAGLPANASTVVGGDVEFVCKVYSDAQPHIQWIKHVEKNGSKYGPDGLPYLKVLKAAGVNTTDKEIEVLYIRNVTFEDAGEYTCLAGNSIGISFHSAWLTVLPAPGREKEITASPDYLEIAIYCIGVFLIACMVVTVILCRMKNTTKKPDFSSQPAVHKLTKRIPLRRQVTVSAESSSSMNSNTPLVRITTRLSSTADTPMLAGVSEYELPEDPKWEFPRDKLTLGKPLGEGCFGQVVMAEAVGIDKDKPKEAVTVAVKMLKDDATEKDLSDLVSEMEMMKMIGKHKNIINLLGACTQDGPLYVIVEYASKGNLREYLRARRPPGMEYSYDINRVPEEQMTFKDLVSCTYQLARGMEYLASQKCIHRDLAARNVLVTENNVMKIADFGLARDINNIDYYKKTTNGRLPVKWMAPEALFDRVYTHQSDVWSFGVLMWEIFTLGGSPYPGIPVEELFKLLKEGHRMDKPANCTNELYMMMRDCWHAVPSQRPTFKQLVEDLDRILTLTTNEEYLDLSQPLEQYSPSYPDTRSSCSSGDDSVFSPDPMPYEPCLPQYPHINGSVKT
T1 sequence (P22455 whole entry, looked up): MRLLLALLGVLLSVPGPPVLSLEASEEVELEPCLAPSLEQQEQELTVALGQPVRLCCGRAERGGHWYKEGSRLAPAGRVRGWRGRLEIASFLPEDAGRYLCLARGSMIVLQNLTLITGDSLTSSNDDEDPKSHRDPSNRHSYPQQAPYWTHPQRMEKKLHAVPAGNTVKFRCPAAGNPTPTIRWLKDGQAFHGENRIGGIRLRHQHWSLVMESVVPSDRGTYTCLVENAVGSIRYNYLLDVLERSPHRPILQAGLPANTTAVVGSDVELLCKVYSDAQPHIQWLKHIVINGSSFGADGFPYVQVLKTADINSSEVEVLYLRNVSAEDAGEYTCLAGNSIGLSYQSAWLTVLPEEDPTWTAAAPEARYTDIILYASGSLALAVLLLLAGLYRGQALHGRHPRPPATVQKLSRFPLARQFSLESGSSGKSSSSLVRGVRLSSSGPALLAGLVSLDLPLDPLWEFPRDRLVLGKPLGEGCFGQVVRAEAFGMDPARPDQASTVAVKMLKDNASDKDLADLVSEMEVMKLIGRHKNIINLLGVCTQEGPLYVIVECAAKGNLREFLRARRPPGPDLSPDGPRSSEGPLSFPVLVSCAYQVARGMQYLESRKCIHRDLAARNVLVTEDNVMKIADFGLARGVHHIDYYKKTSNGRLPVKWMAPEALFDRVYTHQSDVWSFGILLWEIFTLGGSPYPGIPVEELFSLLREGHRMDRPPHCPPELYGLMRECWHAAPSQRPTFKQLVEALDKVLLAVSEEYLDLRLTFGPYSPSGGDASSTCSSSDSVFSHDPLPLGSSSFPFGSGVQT
T1 sequence (P22607 whole entry, looked up): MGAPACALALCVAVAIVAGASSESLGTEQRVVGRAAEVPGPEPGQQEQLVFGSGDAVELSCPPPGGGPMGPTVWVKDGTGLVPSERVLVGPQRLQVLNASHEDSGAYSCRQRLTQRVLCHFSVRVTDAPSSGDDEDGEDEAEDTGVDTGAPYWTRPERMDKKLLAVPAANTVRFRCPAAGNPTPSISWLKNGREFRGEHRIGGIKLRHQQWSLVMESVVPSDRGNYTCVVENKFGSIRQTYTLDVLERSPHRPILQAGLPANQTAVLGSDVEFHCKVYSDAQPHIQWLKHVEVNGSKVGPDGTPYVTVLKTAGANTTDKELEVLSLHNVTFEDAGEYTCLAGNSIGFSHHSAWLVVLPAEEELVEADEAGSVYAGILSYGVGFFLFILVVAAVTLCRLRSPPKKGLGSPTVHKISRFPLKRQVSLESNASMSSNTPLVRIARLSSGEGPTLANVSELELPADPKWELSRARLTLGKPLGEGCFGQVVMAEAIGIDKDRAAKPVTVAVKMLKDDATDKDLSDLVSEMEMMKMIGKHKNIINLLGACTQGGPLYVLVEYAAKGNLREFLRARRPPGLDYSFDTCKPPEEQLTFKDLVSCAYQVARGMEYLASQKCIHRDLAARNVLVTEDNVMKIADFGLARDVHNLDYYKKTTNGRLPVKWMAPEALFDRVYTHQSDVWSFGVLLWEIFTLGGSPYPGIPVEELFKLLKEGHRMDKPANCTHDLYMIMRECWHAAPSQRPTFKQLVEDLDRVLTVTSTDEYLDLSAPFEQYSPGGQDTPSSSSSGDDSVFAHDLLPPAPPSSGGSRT

| IC50 [1] [µM] | inhibition [2] [%] | IC50 [3] [µM] | inhibition [4] [%] | inhibition [5] [%] | Compound |
| --- | --- | --- | --- | --- | --- |
|  | 10 |  | 10 | 1 | CN(C)C(=O)C1=C(c2ccccc2)c2ccccc2C1=O |
| 6.8 | 27 | 7.6 |  |  | COC(=O)C1=C(c2ccccc2)c2ccncc2C1=O |
| 25 | 9 |  |  | 7 | O=C(O)C1=C(c2ccccc2)c2ccccc2C1=O |
| 4.7 | 25 | 3.6 |  |  | NC(=O)C1=C(c2ccccc2)c2ccccc2C1=O |
| 21 | 24 |  |  | 16 | CNC(=O)C1=C(c2ccccc2)c2ccccc2C1=O |
| 15 | 19 | 13 |  |  | COC(=O)C1=C(c2ccccc2)c2c(OC)cccc2C1=O |
| 5.1 | 19 | 25 |  |  | COC(=O)C1=C(c2ccccc2)c2ccccc2C1=O |
| 44 | 11 |  |  | 38 | COC(=O)C1=C(c2ccccc2)c2cccc(C)c2C1=O |

The remaining lines, values behind:

| Compound | IC50 [1] [µM] | inhibition [2] [%] | IC50 [3] [µM] | inhibition [4] [%] | inhibition [5] [%] |
| --- | --- | --- | --- | --- | --- |
| COC(=O)C1=C(c2ccccc2)c2cc(C)ccc2C1=O.COC(=O)C1=C(c2ccccc2)c2ccc(C)cc2C1=O | 6.4 | 20 | 33 |  |  |
| COC(=O)C1=C(c2ccccc2)c2cc(Cl)ccc2C1=O.COC(=O)C1=C(c2ccccc2)c2ccc(Cl)cc2C1=O | 6.2 | 25 |  |  | 10 |
| NC(=O)C1=C(c2ccc(Cl)cc2)c2ccccc2C1=O | 5.4 | 27 | 9.6 |  |  |
| COc1ccc(C2=C(C(N)=O)C(=O)c3ccccc32)cc1 | 10.6 | 23 | 4 |  |  |
| CCN(CC)CCNC(=O)C1=C(c2ccccc2)c2ccccc2C1=O |  | 8 |  | 21 | 11 |
| NC(=O)C1=C(c2ccccc2)c2ccccc2C1O (configuration not stated) |  | 10 |  | 29 | 27 |
| NC(=O)C1=C2CCCc3cccc(c32)C1=O | 4.2 | 25 |  |  | 48 |
| CCC1=C(C(N)=O)C(=O)c2ccccc21 | 9.2 | 8.7 |  |  | 53 |
| NC(=O)C1C(=O)c2ccccc2C1c1ccccc1 (configuration not stated) |  | 16 |  | 23 | 8 |
| C/C=C1\c2ccccc2C(=O)C1C(N)=O (configuration not stated) |  | 8 |  | 26 | 3 |
| COC(=O)C1=C(c2ccccc2)c2cc([N+](=O)[O-])ccc2C1=O.COC(=O)C1=C(c2ccccc2)c2ccc([N+](=O)[O-])cc2C1=O | 10 | 19 | 8.3 |  |  |
